# Results from patent EP4818158A1, “BIARYL COMPOUND” (Kissei Pharmaceutical Co., Ltd., priority 2023, dated 2025).
# Where two headings read alike, the source gives them in different places.
# Columns and labels:
# TSHR = target: T1, TSHR (Mus musculus, UniProt P47750); settings: cited from earlier work
# T1 construct: host or cells: mice in vivo (endogenous thyroid TSHR)
# human TSHR = target: T2, human TSHR (Homo sapiens, UniProt P16473); assay: Antagonist activity using TSH-induced cAMP generation in human TSHR-stably expressing CHO cells; format: cell-based; settings: human TSH 50 ng/mL
# T2 construct: expressed in transfected cells
# Description: Measurement of antagonist activity using TSH-induced cAMP generation in human TSHR-stably expressing CHO cells as an indicator
# The gene sequence (reference number: NM_000369.2) of a human TSHR was inserted into multiple cloning sites of pcDNA3.1 (+). Prepared plasmid vectors were introduced into CHO cells using a lipofection method, and human TSHR-stably expressing CHO cells were established. Obtained cells were seeded in a 96-well poly-D-lysine-coated plate at 5 × 10^4 cells/well and cultured in an F12 culture medium containing 10%FBS, 400 µg/mL of G418, 50 U/mL of penicillin, and 50 µg/mL of streptomycin under conditions of 37°C and 5% CO2 for one day. After the culture medium was removed, the cells were washed twice with 100 µL of an assay buffer solution (Hanks' Balanced Salt Solution containing 20 mM HEPES and 1 mM IBMX) per well. 30 µL of a test compound-containing assay buffer solution was added to the well and incubated at room temperature for 15 minutes. Next, 30 µL of an assay buffer solution containing human TSH (final concentration: 50 ng/mL, R&D Systems, Inc.) was added thereto and incubated at 37°C for one hour. A supernatant was removed, a Lysis and Detection Buffer 2(Cisbio) was added thereto, and the mixture was incubated at room temperature for one hour to prepare a cell lysate. According to the instruction manual of a cAMP Gs HiRange kit (Cisbio), the cell lysate, d2-labeled cAMP, and anti-cAMP Europium Cryptate labeled antibodies (Cisbio) were reacted together in a 384-well white microplate. Next, fluorescence intensity ratios (measurement wavelengths: 665 nm/620 nm) were measured using a multi-plate reader (PHERAstar FSX, BMG LABTECH, Japan). The fluorescence intensity ratio of each sample was converted to a cAMP content using a standard curve. The cAMP content was converted as a percentage of the control value to calculate a cAMP generation rate. The cAMP generation rates were plotted against the test compound concentrations using Prism (Graph Pad Software Inc.) to calculate IC50 values. The IC50's of the individual test compounds are shown in the above tables. In the tables, IC50 < 0.3 µM was denoted as A, and 0.3 µM ≤ IC50 < 30 µM was denoted as B. Cases where the IC50 values were not calculated for test compounds from which activity was recognized are denoted as C.
# T2 sequence (P16473 21-764): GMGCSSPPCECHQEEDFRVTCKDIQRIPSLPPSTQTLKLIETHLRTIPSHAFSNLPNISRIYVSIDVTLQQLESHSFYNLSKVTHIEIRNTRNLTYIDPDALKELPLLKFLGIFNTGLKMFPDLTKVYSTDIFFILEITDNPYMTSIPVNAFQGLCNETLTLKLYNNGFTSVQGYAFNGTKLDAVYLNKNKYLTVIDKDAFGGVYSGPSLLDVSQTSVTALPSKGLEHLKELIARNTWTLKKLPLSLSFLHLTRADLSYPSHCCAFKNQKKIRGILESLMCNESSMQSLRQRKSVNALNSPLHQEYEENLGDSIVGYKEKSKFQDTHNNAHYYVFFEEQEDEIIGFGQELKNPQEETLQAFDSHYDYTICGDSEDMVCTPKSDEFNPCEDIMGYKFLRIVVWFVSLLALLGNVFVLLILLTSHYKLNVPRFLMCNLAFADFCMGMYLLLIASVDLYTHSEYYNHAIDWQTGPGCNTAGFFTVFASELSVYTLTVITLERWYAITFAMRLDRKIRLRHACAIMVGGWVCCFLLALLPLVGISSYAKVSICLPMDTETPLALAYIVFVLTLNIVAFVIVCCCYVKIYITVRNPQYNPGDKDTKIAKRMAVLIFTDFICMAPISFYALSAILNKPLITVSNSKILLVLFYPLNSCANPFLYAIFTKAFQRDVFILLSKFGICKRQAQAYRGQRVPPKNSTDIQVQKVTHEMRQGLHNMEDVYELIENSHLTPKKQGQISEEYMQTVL
# T1 sequence (P47750 22-764): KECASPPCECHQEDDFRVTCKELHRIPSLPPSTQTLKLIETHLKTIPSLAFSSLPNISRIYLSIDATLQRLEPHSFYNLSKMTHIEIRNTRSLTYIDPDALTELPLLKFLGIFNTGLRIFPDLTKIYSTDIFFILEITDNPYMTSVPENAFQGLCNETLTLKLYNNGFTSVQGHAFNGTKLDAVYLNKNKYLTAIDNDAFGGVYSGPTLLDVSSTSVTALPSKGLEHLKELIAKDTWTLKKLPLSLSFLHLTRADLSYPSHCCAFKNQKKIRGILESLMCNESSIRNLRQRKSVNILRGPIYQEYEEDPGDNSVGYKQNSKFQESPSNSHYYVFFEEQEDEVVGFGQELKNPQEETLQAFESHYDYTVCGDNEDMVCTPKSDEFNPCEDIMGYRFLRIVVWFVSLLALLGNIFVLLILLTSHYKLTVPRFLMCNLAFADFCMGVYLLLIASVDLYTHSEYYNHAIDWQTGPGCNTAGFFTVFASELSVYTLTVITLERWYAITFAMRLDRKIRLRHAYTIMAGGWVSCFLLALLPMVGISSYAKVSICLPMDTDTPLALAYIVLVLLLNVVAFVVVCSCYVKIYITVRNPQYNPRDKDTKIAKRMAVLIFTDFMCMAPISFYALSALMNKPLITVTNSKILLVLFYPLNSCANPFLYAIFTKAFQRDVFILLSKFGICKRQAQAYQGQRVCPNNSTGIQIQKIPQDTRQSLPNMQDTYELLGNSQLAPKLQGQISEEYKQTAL
Compound,IC50 (human TSHR),further results
COc1ccc(C2Nc3ccccc3C(=O)N2Cc2ccco2)cc1COc1c(C)cc(NC(C)=O)cc1C (stereo not shown) [NCGC00242364],–,blood T4 concentration (TSHR; TSH-releasing hormone (TRH)-treated mice): blood T4 concentration lowering effect; blood T4 concentration (TSHR; thyroid stimulating antibody M22-treated mice): blood T4 concentration lowering effect
"CC(C)(C)OC(=O)Nc1ccc(-c2cccnc2CCC(N)=O)c(Cc2ncccc2F)c1F [Example F-2, tert-Butyl (4-(2-(3-amino-3-oxopropyl)pyridin-3-yl)-2-fluoro-3-((3-fluoropyridin-2-yl)methyl)phenyl)carbamate]",300 to 30000 nM,–
CC(C)(C)OC(=O)Nc1ccc(-c2cccnc2CNC(N)=O)c(C(=O)c2ccccc2C(F)(F)F)c1F [Example E-2],300 to 30000 nM,–
"NC(=O)CCc1nnccc1-c1ccc(NC(=O)O[C@H]2C[C@H](F)C2)c(F)c1Cc1ccccc1F [Example C-7, trans-3-Fluorocyclobutyl (4-(3-(3-amino-3-oxopropyl)pyridazin-4-yl)-2-fluoro-3-(2-fluorobenzyl)phenyl)carbamate]",300 to 30000 nM,–
"CC(C)(CO)OC(=O)Nc1ccc(-c2cccnc2CNC(N)=O)c(Cc2ccccc2F)c1F [Example A-21, 1-Hydroxy-2-methylpropan-2-yl (2-fluoro-3-(2-fluorobenzyl)-4-(2-(ureidomethyl)pyridin-3-yl)phenyl)carbamate]",300 to 30000 nM,–
NC(=O)NCc1ncccc1-c1ccc(NC(=O)OC2CC(F)(F)C2)c(F)c1Oc1ccccc1F [Example B-5],300 to 30000 nM,–
"CC(C)(C)OC(=O)Nc1ccc(-c2cccnc2CNC(N)=O)c(CN2CC3CCC(C2)O3)c1F [Example F-7, tert-Butyl (3-((8-oxa-3-azabicyclo[3.2.1]octan-3-yl)methyl)-2-fluoro-4-(2-(ureidomethyl)pyridin-3-yl)phenyl)carbamate]",300 to 30000 nM,–
"CN(C)CCCOC(=O)Nc1ccc(-c2cccnc2CNC(N)=O)c(Cc2ccccc2F)c1F [Example A-30, 3-(Dimethylamino)propyl (2-fluoro-3-(2-fluorobenzyl)-4-(2-(ureidomethyl)pyridin-3-yl)phenyl)carbamate]",300 to 30000 nM,–
"COc1ccccc1Cc1c(-c2cccnc2CNC(N)=O)ccc(NC(=O)OC(C)(C)C)c1F [Example A-17, tert-Butyl (2-fluoro-3-(2-methoxybenzyl)-4-(2-(ureidomethyl)pyridin-3-yl)phenyl)carbamate]",300 to 30000 nM,–
"Cc1ccnc(CNC(N)=O)c1-c1ccc(NC(=O)OC(C)(C)C)c(F)c1Cc1ccccc1 [Example A-9, tert-Butyl (3-benzyl-2-fluoro-4-(4-methyl-2-(ureidomethyl)pyridin-3-yl)phenyl)carbamate]",300 to 30000 nM,–
NC(=O)CCc1ncccc1-c1ccc(NC(=O)OC2CC(F)(F)C2)c(F)c1C(=O)c1ccccc1F [Example E-6],300 to 30000 nM,–
NC(=O)NCc1ncccc1-c1ccc(NC(=O)OCC2CCOC2)c(F)c1Cc1ccccc1F (stereo not shown) [Example A-35],< 300 nM,–
NC(=O)NCc1nnccc1-c1ccc(NC(=O)OC2(C3CC3)CC2)c(F)c1Cc1ccccc1F [Example C-10],300 to 30000 nM,–
"C[C@H](OC(=O)Nc1ccc(-c2ccnnc2CNC(N)=O)c(Oc2ccccc2F)c1F)C(F)(F)F [Example D-2, (S)-1,1,1-Trifluoropropan-2-yl (2-fluoro-3-(2-fluorophenoxy)-4-(3-(ureidomethyl)pyridazin-4-yl)phenyl)carbamate]",300 to 30000 nM,–
N#CC1(COC(=O)Nc2ccc(-c3cccnc3CNC(N)=O)c(Cc3ccccc3F)c2F)CC1 [Example A-8],< 300 nM,–
"CC(C)(C)OC(=O)Nc1ccc(-c2cccnc2CCC(N)=O)c(Cc2ccccc2C#N)c1F [Example A-39, tert-Butyl (4-(2-(3-amino-3-oxopropyl)pyridin-3-yl)-3-(2-cyanobenzyl)-2-fluorophenyl)carbamate]",< 300 nM,–

# More lines, main results first:
IC50 (human TSHR),Compound,further results
< 300 nM,NC(=O)CCc1nnccc1-c1ccc(NC(=O)OC2CC(F)(F)C2)c(F)c1Cc1ccccc1F [Example C-8],–
< 300 nM,C[C@@H](OC(=O)Nc1ccc(-c2cccnc2CNC(N)=O)c(Cc2ccccc2F)c1F)C(F)(F)F [Example A-24],–
< 300 nM,"CC(C)(COCc1ccccc1)OC(=O)Nc1ccc(-c2cccnc2CNC(N)=O)c(Cc2ccccc2F)c1F [Example A-20, 1-(Benzyloxy)-2-methylpropan-2-yl (2-fluoro-3-(2-fluorobenzyl)-4-(2-(ureidomethyl)pyridin-3-yl)phenyl)carbamate]",–
< 300 nM,NC(=O)CCc1ncccc1-c1ccc(NC(=O)OCC2CC(F)(F)C2)c(F)c1C(=O)c1ccccc1F [Example E-7],–
< 300 nM,"NC(=O)NCc1ncccc1-c1ccc(NC(=O)NC2CCCC2)c(F)c1Cc1ccccc1F [Example G-8, 1-Cyclopentyl-3-(2-fluoro-3-(2-fluorobenzyl)-4-(2-(ureidomethyl)pyridin-3-yl)phenyl)urea]",–
< 300 nM,"C[C@@H](OC(=O)Nc1ccc(-c2ccnnc2CCC(N)=O)c(Cc2ccccc2F)c1F)C1CC1 [Example C-6, (R)-1-Cyclopropylethyl (4-(3-(3-amino-3-oxopropyl)pyridazin-4-yl)-2-fluoro-3-(2-fluorobenzyl)phenyl)carbamate]",–
< 300 nM,"C[C@H](OC(=O)Nc1ccc(-c2ccnnc2CCC(N)=O)c(Cc2ccccc2F)c1F)C(F)(F)F [Example C-5, (S)-1,1,1-Trifluoropropan-2-yl (4-(3-(3-amino-3-oxopropyl)pyridazin-4-yl)-2-fluoro-3-(2-fluorobenzyl)phenyl)carbamate]",–
< 300 nM,"CC(C)(C)OC(=O)Nc1ccc(-c2ccnnc2CCC(N)=O)c(Cc2ccccc2F)c1F [Example C-4, tert-Butyl (4-(3-(3-amino-3-oxopropyl)pyridazin-4-yl)-2-fluoro-3-(2-fluorobenzyl)phenyl)carbamate]",–
< 300 nM,NC(=O)NCc1ncccc1-c1ccc(NC(=O)OCC2CC(F)(F)C2)c(F)c1Oc1ccccc1F [Example B-4],–
< 300 nM,"NC(=O)NCc1ncccc1-c1ccc(NC(=O)O[C@H]2C[C@H](F)C2)c(F)c1Cc1ccccc1F [Example A-5, trans-3-Fluorocyclobutyl (2-fluoro-3-(2-fluorobenzyl)-4-(2-(ureidomethyl)pyridin-3-yl)phenyl)carbamate]",–
< 300 nM,"CC(C)(C)OC(=O)Nc1ccc(-c2cccnc2CNC(N)=O)c(Cc2ccccc2F)c1F [Example A-1, tert-Butyl (2-fluoro-3-(2-fluorobenzyl)-4-(2-(ureidomethyl)pyridin-3-yl)phenyl)carbamate]",–
